Drawing on ChEMBL document CHEMBL4316613, “Recent developments in the synthesis and applications of phosphinic peptide analogs” (Bioorg Med Chem Lett, 2019), this text covers Ki for 8 molecules.

Experiment [1] can be described thus: Inhibition of Neisseria meningitidis APN.
The target in experiment [2] is T1, Leucine aminopeptidase (Plasmodium falciparum 3D7, UniProt Q8IL11).
T1 sequence (Q8IL11 whole entry): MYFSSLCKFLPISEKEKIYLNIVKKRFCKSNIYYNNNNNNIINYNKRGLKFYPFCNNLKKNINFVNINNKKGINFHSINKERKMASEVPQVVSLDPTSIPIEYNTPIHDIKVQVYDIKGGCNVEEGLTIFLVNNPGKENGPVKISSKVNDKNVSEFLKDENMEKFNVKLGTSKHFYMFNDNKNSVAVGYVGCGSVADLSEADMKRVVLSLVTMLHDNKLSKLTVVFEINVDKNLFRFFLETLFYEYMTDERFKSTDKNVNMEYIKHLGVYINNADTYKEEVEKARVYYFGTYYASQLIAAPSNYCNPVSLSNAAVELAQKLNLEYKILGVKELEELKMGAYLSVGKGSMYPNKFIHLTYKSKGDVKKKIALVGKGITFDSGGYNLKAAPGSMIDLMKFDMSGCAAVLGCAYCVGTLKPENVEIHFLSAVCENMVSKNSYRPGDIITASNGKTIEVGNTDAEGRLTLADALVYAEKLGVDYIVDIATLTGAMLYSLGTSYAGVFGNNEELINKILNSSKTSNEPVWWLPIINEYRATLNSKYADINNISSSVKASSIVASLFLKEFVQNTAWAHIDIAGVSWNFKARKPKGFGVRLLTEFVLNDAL
Description: Inhibition of Plasmodium falciparum LAP.

Experiment [3] has as its target T2, Leukotriene A-4 hydrolase (Homo sapiens, UniProt P09960).
T2 sequence (P09960 whole entry): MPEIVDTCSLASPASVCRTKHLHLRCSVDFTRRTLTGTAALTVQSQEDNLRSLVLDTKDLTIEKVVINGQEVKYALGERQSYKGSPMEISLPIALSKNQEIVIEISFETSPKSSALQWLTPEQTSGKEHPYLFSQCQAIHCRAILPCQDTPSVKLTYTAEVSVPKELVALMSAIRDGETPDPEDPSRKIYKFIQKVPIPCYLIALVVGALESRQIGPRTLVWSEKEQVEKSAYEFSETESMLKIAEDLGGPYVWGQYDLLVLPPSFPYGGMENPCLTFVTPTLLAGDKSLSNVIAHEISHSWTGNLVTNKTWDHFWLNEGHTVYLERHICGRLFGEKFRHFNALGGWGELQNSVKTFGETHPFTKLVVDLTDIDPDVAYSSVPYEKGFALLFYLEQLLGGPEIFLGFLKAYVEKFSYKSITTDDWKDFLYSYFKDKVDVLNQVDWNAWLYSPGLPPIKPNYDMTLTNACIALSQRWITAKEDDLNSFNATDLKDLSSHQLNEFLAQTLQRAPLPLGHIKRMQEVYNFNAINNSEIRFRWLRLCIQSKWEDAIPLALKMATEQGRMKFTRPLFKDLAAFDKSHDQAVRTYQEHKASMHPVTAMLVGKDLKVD
Description: Inhibition of human recombinant LTA4H by L-(4-benzoyl)phenylalanyl-beta-naphthylamide fluorigenic substrate by fluorescence based assay.

A short description of experiment [4]: Inhibition of Helicobacter pylori Csd4.
Experiment [5] concerns the target T3, Macrophage metalloelastase (Homo sapiens, UniProt P39900). Description: Inhibition of human MMP12.
Experiment [6] in a line: Inhibition of Plasmodium falciparum APN.
In experiment [7] the target is 72 kDa type IV collagenase (Homo sapiens, UniProt P08253). Kind of experiment: Inhibition of human MMP2 by photoaffinity probe based assay.
72 kDa type IV collagenase, sequence (P08253 whole entry): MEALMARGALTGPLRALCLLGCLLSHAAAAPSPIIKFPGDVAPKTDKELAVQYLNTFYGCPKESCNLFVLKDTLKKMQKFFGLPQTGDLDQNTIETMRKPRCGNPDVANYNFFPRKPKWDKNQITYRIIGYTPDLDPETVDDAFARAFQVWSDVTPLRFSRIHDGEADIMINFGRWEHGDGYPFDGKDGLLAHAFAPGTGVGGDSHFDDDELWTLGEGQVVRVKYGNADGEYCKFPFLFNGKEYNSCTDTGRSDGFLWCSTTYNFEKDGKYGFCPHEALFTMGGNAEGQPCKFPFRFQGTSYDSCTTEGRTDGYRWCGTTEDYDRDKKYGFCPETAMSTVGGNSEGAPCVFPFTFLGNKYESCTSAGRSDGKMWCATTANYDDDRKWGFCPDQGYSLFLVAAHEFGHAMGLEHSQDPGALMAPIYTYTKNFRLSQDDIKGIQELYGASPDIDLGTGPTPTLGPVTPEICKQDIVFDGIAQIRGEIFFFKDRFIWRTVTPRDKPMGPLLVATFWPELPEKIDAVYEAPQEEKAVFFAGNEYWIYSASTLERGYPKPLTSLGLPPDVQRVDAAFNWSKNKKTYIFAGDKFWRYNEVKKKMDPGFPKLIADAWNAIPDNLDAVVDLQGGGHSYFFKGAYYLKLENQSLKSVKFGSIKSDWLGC
Experiment [8] has as its target Matrix metalloproteinase-9 (Homo sapiens, UniProt P14780). Description: Inhibition of human MMP9 by photoaffinity probe based assay.
Experiment [9] deals with Neutrophil collagenase (Homo sapiens, UniProt P22894). Kind of experiment: Inhibition of human MMP8 by photoaffinity probe based assay.
Neutrophil collagenase, sequence (P22894 whole entry): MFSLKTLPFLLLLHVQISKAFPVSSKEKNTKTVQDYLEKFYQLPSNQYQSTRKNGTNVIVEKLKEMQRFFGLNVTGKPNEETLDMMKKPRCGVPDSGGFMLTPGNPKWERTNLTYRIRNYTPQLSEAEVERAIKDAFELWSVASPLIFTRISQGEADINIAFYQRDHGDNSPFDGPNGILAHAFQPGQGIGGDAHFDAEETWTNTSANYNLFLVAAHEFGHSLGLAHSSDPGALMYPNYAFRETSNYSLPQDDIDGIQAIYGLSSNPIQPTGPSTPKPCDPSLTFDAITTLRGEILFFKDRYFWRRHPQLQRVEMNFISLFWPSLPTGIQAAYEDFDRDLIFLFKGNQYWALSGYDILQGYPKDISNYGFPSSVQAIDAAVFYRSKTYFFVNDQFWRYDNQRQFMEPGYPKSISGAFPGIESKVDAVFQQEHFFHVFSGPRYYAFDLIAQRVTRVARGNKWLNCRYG
For experiment [10], the target named is Collagenase 3 (Homo sapiens, UniProt P45452). Kind of experiment: Inhibition of human MMP13 by photoaffinity probe based assay.
In experiment [11] the target is T3, Macrophage metalloelastase. Description: Inhibition of human MMP12 by photoaffinity probe based assay.

T3 sequence (P39900 whole entry): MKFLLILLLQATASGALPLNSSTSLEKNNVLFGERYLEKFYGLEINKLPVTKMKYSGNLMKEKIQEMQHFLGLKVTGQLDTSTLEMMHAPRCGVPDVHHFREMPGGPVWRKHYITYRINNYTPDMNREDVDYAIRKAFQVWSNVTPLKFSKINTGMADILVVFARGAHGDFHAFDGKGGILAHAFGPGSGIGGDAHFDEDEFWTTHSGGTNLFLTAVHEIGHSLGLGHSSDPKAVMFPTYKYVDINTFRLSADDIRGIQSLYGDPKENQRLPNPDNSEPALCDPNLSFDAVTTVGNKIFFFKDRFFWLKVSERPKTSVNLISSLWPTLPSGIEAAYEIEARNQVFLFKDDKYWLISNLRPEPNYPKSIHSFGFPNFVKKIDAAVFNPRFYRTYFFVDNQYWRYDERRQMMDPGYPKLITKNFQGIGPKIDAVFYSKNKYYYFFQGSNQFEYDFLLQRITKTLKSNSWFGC
Matrix metalloproteinase-9, sequence (P14780 whole entry): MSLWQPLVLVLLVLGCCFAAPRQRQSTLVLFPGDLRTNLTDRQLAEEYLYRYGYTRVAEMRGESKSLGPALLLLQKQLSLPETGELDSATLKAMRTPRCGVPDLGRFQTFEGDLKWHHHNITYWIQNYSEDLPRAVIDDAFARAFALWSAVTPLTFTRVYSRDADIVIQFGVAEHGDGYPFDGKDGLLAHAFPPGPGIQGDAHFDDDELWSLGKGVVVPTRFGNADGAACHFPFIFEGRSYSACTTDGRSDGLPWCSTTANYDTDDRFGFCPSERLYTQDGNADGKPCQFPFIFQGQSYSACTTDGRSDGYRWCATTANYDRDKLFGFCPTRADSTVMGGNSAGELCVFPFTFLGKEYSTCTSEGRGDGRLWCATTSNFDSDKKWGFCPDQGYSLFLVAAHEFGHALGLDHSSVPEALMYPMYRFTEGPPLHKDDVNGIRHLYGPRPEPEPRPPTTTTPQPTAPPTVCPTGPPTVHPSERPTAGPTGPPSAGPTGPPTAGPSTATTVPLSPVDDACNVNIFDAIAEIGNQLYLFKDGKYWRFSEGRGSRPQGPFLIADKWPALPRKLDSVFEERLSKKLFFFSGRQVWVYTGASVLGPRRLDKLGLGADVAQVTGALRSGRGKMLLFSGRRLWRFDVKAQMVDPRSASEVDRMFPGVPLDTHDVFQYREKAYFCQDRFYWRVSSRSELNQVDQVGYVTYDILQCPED

As usually defined, the Ki is a measure of affinity in units of concentration, obtained from inhibition or displacement. Take `NC(CCc1ccccc1)P(=O)(O)CC(Cc1ccccc1)C(=O)O` (stereo not given): the results for the Ki in experiment [1] and in [2] were 302 nM and 13 nM, respectively.

On to `CC(=O)N1CCC(CP(=O)(O)[C@H](C)N)(C(=O)N[C@@H](C)C(=O)O)CC1`, for which, in experiment [3], the Ki amounted to 5.3 nM.

In experiment [4], `CC(=O)N[C@H](CCP(=O)(O)CC(CCC[C@@H](N)C(=O)O)C(=O)O)C(=O)O` (stereo not given in full) came in with an inhibition constant Ki of 1500 nM.

As for `C[C@H](NC(=O)[C@H](Cc1cc(-c2ccc(-c3cccc(Cl)c3)cc2)no1)CP(=O)(O)c1ccc(Br)cc1)C(=O)N[C@@H](CCC(=O)O)C(N)=O`, the Ki in experiment [5] was 0.26 nM.

On to `C[C@H](NC(=O)C1(CP(=O)(O)[C@H](C)N)CCCC1)C(=O)O`, for which the inhibition constant Ki in [3] worked out at 4.6 nM.

On to `NC(CCc1ccccc1)P(=O)(O)CC(Cc1ccc(O)cc1)C(=O)O` (stereo not given), for which the Ki in [1] amounted to 54 nM; in experiment [6] it was 232 nM; in experiment [2], 10 nM.

As to `CC[N+]1=C(/C=C/C=C/C=C2/N(CCCCCC(=O)NCCCOCCOCCOCCCNC(=O)[C@H](CCC(=O)O)NC(=O)[C@H](C)NC(=O)[C@H](Cc3cc(-c4ccc(-c5cccc(Cl)c5)cc4)no3)CP(=O)(O)c3ccc(Br)cc3)c3ccc4c(S(=O)(=O)O)cc(S(=O)(=O)O)cc4c3C2(C)C)C(C)(C)c2c1ccc1c(S(=O)(=O)[O-])cc(S(=O)(=O)O)cc21`, in [5], the Ki came to 0.9 nM.

Regarding `[3H]CC([3H])C(=O)NCCCOCCOCCOCCCNC(=O)[C@H](CO)NC(=O)[C@H](CC)NC(=O)[C@H](Cc1cc(-c2ccc(C3(C(F)(F)F)N=N3)cc2)no1)CP(=O)(O)c1ccccc1` (stereo not given in full), the Ki in experiment [7] stood at 0.5 nM; in experiment [8], 2.6 nM; in experiment [9], 0.6 nM; in experiment [10], 1.6 nM; in [11], 1 nM.
